“Also recorded” adds a separate entry of the source. Where a name gives a salt, the structure may show the parent alone.
Legend:
[1] = test system: GVHR-induced nephritis (proteinuria) in BDF1 mice; assay: GVHR-induced proteinuria in mouse (urinary protein by modified one step Exton method); format: in vivo
Protocol: (§1) When an animal of a first filial generation is implanted with lymphatic cells of its parent's line, a graft-versus-host reaction (hereinafter abbreviated as GVHR) takes place to thereby produce an auto-antibody and induce chronic immune-complex (IC) type nephritis.
(§2) The present invention will now be illustrated by way of experiment examples. In these examples, the drug of interest was dissolved in a 0.5 wt% aqueous solution of carboxymethyl cellulose and administered to test animals in an amount of 0.1 ml per 10 g of the body weight.
(§3) Into BDF1 mice (female; 7-week-old; Nippon Charles River) were intravenously implanted twice spleen cells (6×10^7 cells) and thymus cells (3×10^7 cells) taken from DBA/2 mice (female; 7-week-old; Nippon Charles River) of their parent's line on the 0 day and the 5th day to thereby induce GVHR. DN-9693 was orally given at a dose level of 1 mg/kg in a single dose per day for consecutive 44 days from the 6th day to the 49th day. After 2 weeks from the first implantation of cells, the protein in urine and the anti-erythrocyte antibody titre were determined at one week intervals. The protein in urine and the antibody titre were determined by the modified one step Exton method and the direct Coombs' test method, respectively, in accordance with the following procedures:
Modified One Step Exton Method
1. Test urine and an albumin standard preparation were placed in a microplate in 10 μl portions.
2. To each hole was added 200 μl of a reagent prepared by dissolving 15 g of sulfosalicylic acid, 20 g of anhydrous sodium sulfate, 5 mg of Bromophenol Blue, and 0.1 g of carboxymethyl cellulose in one liter of water. After stirring to mix, the system was allowed to stand at room temperature.
3. Ten minutes later, the absorbance at 690 nm was measured using the system comprising the reagent alone as a blank.
4. The protein in urine was calculated from a calibration curve.

[2] = test system: anti-erythrocyte antibody (auto-antibody) in BDF1 mice; assay: Auto-antibody production in mouse induced by GVHR (anti-erythrocyte antibody titre, direct Coombs' test); format: in vivo
Protocol: as §1, §2, §3
Direct Coombs' Test Method
1. Blood samples (50 μl) were obtained from the orbital veniplex of the experimental animals (mice) using a heparinized hematocrit tube.
2. The erythrocytes were washed three times by centrifugation (2,500 r.p.m. for 6 minutes) with a phosphoric acid-buffered physiological saline containing 0.3 wt% bovine serum albumin (0.3% BSA-PBS).
3. The erythrocytes were suspended in 0.3% BSA-PBS to prepare a 1 wt% mouse erythrocyte suspension.
4. The erythrocyte suspension (50 μl) was added to 50 μl of rabbit anti-mouse Ig (MBL) in a two-fold serial dilution placed in a microplate. After shaking, the system was allowed to stand at 37° C. for 1 hour and then at room temperature for 2 hours. The state of agglutination was observed.
5. The maximum dilution of the rabbit anti-mouse Ig that gave a positive agglutination was expressed as 10×2^n, and the value n was taken as an antibody titre.

[3] = test system: lupus nephritis (proteinuria) in NZB/WF1 mice; assay: Urinary protein in NZB/WF1 mouse (spontaneous lupus nephritis); format: in vivo
Protocol: as §2
Ten animals clearly showing proteinuria were chosen from 32-week-old NZB/WF1 mice (female, Jackson) and divided into two groups (5 animals per group) taking the protein level in urine as a guide.
DN-9693 was continuously administered orally one or two times per day at a dose of 1 mg/kg, and influences on changes of urinary protein level were examined.
Thus, the activity to lower protein in urine was recognized also in spontaneously occurring lupus nephritis.

[4] = test system: nephritis of acute serum sickness; details: Clin. Exp. Immunol., Vol. 61, 388-396 (1985); cited from earlier work
[5] = 1 mg/kg p.o., in words, monohydrate

Structure (SMILES)	Effect on urinary protein (GVHR-induced nephritis) [1, 5]	Urinary Protein Score (Mean ± S.E.), 4th Week ([1]; DN-9693 1 mg/kg p.o. once daily day 6-49, n=7, 4th week from first cell implantation, control 0.2 ± 0.1, score 0 (<=1 mg/ml) to 4 (>=30 mg/ml and ascitic positive))	Urinary Protein Score (Mean ± S.E.), 5th Week ([1]; DN-9693 1 mg/kg p.o. once daily day 6-49, n=7, 5th week from first cell implantation, control 0.8 ± 0.4, score 0 to 4)	Urinary Protein Score (Mean ± S.E.), 6th Week ([1]; DN-9693 1 mg/kg p.o. once daily day 6-49, n=7, 6th week from first cell implantation, control 1.8 ± 0.7, score 0 to 4)	Urinary Protein Score (Mean ± S.E.), 7th Week ([1]; DN-9693 1 mg/kg p.o. once daily day 6-49, n=7, 7th week from first cell implantation, control 2.3 ± 0.6, S.E. 0.4 printed on next line, significantly different from control (P < 0.05), score 0 to 4)	Anti-Erythrocyte Antibody Titre (Mean ± S.E.), 3rd Week ([2]; 1 mg/kg p.o. once daily day 6-49, n=7, titre n: 10 × 2^n, 3rd week from first cell implantation, control 6.3 ± 1.0)	Anti-Erythrocyte Antibody Titre (Mean ± S.E.), 4th Week ([2]; 1 mg/kg p.o. once daily day 6-49, n=7, titre n: 10 × 2^n, 4th week from first cell implantation, control 5.4 ± 0.6)	Anti-Erythrocyte Antibody Titre (Mean ± S.E.), 5th Week ([2]; 1 mg/kg p.o. once daily day 6-49, n=7, titre n: 10 × 2^n, 5th week from first cell implantation, control 4.9 ± 1.3)	Anti-Erythrocyte Antibody Titre (Mean ± S.E.), 6th Week ([2]; 1 mg/kg p.o. once daily day 6-49, n=7, titre n: 10 × 2^n, 6th week from first cell implantation, control 2.9 ± 1.5)	Anti-Erythrocyte Antibody Titre (Mean ± S.E.), 7th Week ([2]; 1 mg/kg p.o. once daily day 6-49, n=7, titre n: 10 × 2^n, 7th week from first cell implantation, control 1.9 ± 1.2)	Influence on production of auto-antibody / immune inhibitory activity [2, 5]	Effect on urinary protein (spontaneous lupus nephritis) ([3]; 1 mg/kg p.o. one or two times per day, in words, monohydrate)	Number of survivors, 0 Week (32) ([3]; of 5 animals, 0 week, control 5)	Number of survivors, 1 Week (33) ([3]; of 5 animals, 1 week, control 5)	Number of survivors, 2 Weeks (34) ([3]; of 5 animals, 2 weeks, control 4)	Urinary Protein Index (Mean ± S.E.), 0 Week (32) ([3]; protein level after/before administration, 1 mg/kg p.o. one or two times per day, 0 week (32-week-old), control 1.0)	Urinary Protein Index (Mean ± S.E.), 1 Week (33) ([3]; protein level after/before administration, 1 mg/kg p.o. one or two times per day, 1 week (33-week-old), control 7.0 ± 5.9)	Urinary Protein Index (Mean ± S.E.), 2 Weeks (34) ([3]; protein level after/before administration, 1 mg/kg p.o. one or two times per day, 2 weeks (34-week-old), control 4.8 ± 2.9)	Protection of nephritis [4]
O=C1CN2Cc3cc(N4CCCCC4)ccc3N=C2N1 [DN-9693, 7-piperidino-1,2,3,5-tetrahydroimidazo[2,1-b]quinazolin-2-onedihydrochloride monohydrate]	exhibited an effect to decrease protein in urine; also recorded: urinary protein decreasing effect; also recorded: significantly inhibits an increase of urinary protein	0.3 ± 0.1	0.1 ± 0.1	0.4 ± 0.4	0.6	6.6 ± 0.6	5.6 ± 0.2	3.6 ± 1.1	3.9 ± 1.1	3.1 ± 1.0	did not influence the production of an auto-antibody; also recorded: possesses no immune inhibitory activity; also recorded: does not decrease the Coombs antibody titre	the increase of urinary protein level is inhibited; also recorded: reduction of protein in the urine	5	5	5	1.1	1.2 ± 0.2	1.6 ± 0.6	
N=C(N)c1ccc2cc(OC(=O)c3ccc(N=C(N)N)cc3)ccc2c1 [FUT-175, dihydrochloride]																			protection of nephritis
OCCN(CCO)c1nc(N2CCCCC2)c2nc(N(CCO)CCO)nc(N3CCCCC3)c2n1 [dipyridamole, 2,6-bis(diethanolamino)-4,8-dipiperidinopyrimido[5,4,-d]pyrimidine]																			protection of nephritis
